From patent US9828352B2, “Phenyl carbamates and their use as inhibitors of the fatty acid amide hydrolase (FAAH) enzyme and modulators of the D3 dopamine receptor (D3DR)” (FONDAZIONE ISTITUTO ITALIANO DI TECNOLOGIA, priority 2013, dated 2017) come the findings set out here.

The target in assay [1] is T1, rat FAAH (Rattus norvegicus, UniProt P97612).
T1 construct: from tissue; host or cells: male Sprague Dawley rat brain, total homogenate
T1 sequence (P97612 1-579): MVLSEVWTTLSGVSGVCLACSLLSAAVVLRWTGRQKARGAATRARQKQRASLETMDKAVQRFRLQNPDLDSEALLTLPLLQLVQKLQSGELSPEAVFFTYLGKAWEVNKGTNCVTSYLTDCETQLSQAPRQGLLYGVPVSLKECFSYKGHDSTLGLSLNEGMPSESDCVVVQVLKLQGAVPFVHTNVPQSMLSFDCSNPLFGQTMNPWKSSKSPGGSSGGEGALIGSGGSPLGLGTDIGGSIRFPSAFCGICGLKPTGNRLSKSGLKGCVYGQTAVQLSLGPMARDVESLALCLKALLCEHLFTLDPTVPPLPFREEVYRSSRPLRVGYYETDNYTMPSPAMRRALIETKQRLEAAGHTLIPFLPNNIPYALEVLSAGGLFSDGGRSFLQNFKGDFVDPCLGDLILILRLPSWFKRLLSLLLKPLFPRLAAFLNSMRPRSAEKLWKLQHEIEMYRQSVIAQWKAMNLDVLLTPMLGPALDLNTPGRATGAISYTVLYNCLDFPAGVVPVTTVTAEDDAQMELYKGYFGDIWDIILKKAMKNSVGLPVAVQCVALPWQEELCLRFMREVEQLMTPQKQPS
Kind of assay: Rat Fatty Acid Amide Hydrolase (FAAH) assay, rat brain homogenate, [3H]-anandamide. It is filed as biochemical. The settings on record: 3 separate experiments, each in duplicate. The procedure: Rat Fatty Acid Amide Hydrolase (FAAH) Assay
Male Sprague Dawley rat brains were homogenized in a potter in 20 mM Tris-HCl pH7.4, 0.32M sucrose, protein concentration was measured and samples aliquot stored at −80° C. until use.
FAAH activity was measured using 50 μg of total rat brain homogenate pre-incubated for 10 minutes at 37° C. in 445.5 μL of assay buffer (50 mM Tris-HCl pH7.4, 0.05% Fatty acid-free BSA) with 4.5 μL of inhibitor at appropriate concentration in DMSO, or DMSO alone to measure FAAH total activity. The blank (no activity sample) was prepared with 445.5 μL of assay buffer and 4.5 μL of DMSO without the 50 μg of total rat brain homogenate.
After 10 minutes of pre-incubation, the reaction was started by the addition of 50 μL of substrate for 30 min at 37° C. The substrate is prepared in assay buffer in order to achieve the final concentration of 1 μM Arachidonoyl-ethanolamide (N.90050, Cayman Chemical) and 0.6 nM Anandamide [ethanolamine-1-^3H] (American Radiolabeled Chemicals Inc., ART.0626, 1 mCi/ml, specific activity 60 Ci/mmol).
The reaction was stopped by with the addition of cold 1:1 CHCl3/Methanol. After 10 minutes of centrifugation (845×g at 4° C.) 600 μL of the aqueous phase was transferred into scintillation vials previously filled with 3 mL of scintillation fluid (ULTIMA GOLD, Cat. 6013329, Perkin Elmer Inc.).
Radioactivity was measured by liquid scintillation counting (Microbeta2 Lumijet, Perkin Elmer Inc.).
(§1) EC50 or IC50 values (concentrations causing half-maximal response or inhibition of control agonist response) were determined by non-linear regression analysis of the Log [concentration]/response curves generated with mean replicate values using a four parameter Hill equation curve fitting with GraphPad Prism 5 (GraphPad Software Inc., CA—USA).

In assay [2] the target is T2, human FAAH-1 (Homo sapiens, UniProt O00519).
T2 construct: expressed in transfected cells; host or cells: Hek293 cells stably transfected with human FAAH-1; membrane preparation
T2 sequence (O00519 1-579): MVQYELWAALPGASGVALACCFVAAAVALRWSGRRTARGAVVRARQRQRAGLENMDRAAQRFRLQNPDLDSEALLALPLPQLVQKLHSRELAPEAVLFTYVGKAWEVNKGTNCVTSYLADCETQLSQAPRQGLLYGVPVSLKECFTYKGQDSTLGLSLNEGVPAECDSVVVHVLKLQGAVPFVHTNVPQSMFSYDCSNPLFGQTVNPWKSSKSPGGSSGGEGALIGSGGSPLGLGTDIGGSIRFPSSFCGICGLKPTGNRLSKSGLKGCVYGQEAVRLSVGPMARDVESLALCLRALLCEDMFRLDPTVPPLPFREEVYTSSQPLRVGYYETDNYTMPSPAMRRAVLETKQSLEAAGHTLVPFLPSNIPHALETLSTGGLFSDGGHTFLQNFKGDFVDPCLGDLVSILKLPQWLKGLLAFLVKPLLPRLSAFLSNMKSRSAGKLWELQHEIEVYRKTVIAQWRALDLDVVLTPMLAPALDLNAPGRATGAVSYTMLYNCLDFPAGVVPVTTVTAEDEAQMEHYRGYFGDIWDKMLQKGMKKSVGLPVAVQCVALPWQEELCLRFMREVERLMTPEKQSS
Kind of assay: Human recombinant Fatty Acid Amide Hydrolase-1 (FAAH-1) fluorescent assay, Hek293-hFAAH-1 membranes. It is filed as biochemical. To be noted: 3 separate experiments, each in triplicate. How it is done: Human Recombinant Fatty Acid Amide Hydrolase-1 (FAAH-1) Fluorescent Assay
Hek293 cells stably transfected with human FAAH-1 were maintained in DMEM containing 10% FBS, 1% pen/strep and 500 μg/mL G418 to maintain selective pressure. Cells were scraped off with cold PBS1× pH7.4 from plates and collected by centrifugation (500 g, 10 minutes, 4° C.); cells pellets were re-suspended in homogenizing buffer (20 mM Tris-HCl pH7.4, 0.32M sucrose), disrupted by sonication (10 pulses, 5 times) and centrifuged at 800×g for 15 minutes at 4° C.; the resultant supernatants collected were then centrifuged at 105,000×g for 1 hr at 4° C. and membranes pellets were re-suspended in PBS1× pH7.4.
Protein concentration was measured and samples aliquot stored at −80° C. until use.
The blank (no activity) was prepared using 180 μL of assay buffer without Hek293-hFAAH-1 membrane preparation and 10 μL of DMSO.
After 50 minutes of pre-incubation of compounds with the enzyme at 37° C., the reaction was started by the addition of 10 μL of substrate (AMC Arachidonyl Amide, N.10005098, Cayman Chemical) for 30 min at 37° C. The substrate is prepared in Ethanol in order to achieve the final concentration of 2 μM.
Fluorescence was detected with Tecan Infinite M200 nanoquant (Tecan Group Ltd.) at an excitation wavelength 350 nm and an emission wavelength 460 nm.
as §1

Assay [3] has as its target T3, human-D3R (Homo sapiens, UniProt P35462).
T3 construct: expressed in transfected cells; host or cells: CHO cell line stably transfected with human D3R
Kind of assay: D3 Dopamine Receptor (D3dR) cellular assay, cAMP HTRF functional assay in human-D3R expressing CHO cells. It counts as cell-based. The procedure: D3 Dopamine Receptor (D3dR) Cellular Assay
Activity on D3R was tested with a cAMP functional assay on a stably transfected human-D3R expressing CHO cell line. On the day of the assay performance the cells were washed twice with PBS (w/o calcium and magnesium) and dislodged with a cell scraper, transferred to PBS, centrifuged and re-suspended in HBSS (w/o calcium and magnesium), supplemented with 1 g/L glucose and […] IBMX. The cell suspension was seeded on a 384 well plate (Greiner) and the assay was performed by adding compounds either test compounds alone (for agonist activity), or with test compound after a pre-incubation with 10 nM Dopamine as a stimulant (for antagonistic activity). After incubation (30 min at RT) the cell stimulation was stopped by adding the detecting reagents (cAMP-XL665 and anti-cAMP cryptate) diluted in lysis buffer. The signal was quantified by Homogenous Time-Resolved Fluorescence (HTRF) on a Perkin Elmer Envision plate reader after one hour of incubation at RT.
as §1

T3 sequence (P35462 whole entry): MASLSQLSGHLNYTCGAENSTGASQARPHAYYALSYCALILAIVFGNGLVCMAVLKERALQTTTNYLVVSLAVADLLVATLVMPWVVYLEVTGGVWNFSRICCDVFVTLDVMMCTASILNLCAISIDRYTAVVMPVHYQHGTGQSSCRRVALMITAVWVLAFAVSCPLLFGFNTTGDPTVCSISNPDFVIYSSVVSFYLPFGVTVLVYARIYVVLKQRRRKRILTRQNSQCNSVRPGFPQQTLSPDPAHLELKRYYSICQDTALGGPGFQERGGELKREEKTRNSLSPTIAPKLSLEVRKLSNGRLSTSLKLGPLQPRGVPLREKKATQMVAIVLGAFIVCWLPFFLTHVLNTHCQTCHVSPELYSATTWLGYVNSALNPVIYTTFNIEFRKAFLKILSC

As usually defined, the IC50 is the concentration at which inhibition is half-maximal. As for `COc1ccccc1N1CCN(CCCCNC(=O)Oc2cccc(-c3cccc(C(N)=O)c3)c2)CC1` [Example 1, [3-(3-carbamoylphenyl)phenyl] N-[4-[4-(2-methoxyphenyl)piperazin-1-yl]butyl] carbamate], the IC50 in assay [1] was 940 pM. As to `NC(=O)c1cccc(-c2cccc(OC(=O)NCCCCN3CCN(c4cccc(Cl)c4Cl)CC3)c2)c1` [Example 2, [3-(3-carbamoylphenyl)phenyl] N-[4-[4-(2,3-dichlorophenyl)piperazin-1-yl]butyl] carbamate], the half-maximal inhibitory concentration (IC50) in assay [1] is 300 pM. Compound `NC(=O)c1cccc(-c2cccc(OC(=O)NCCCN3CCN(c4cccc(Cl)c4Cl)CC3)c2)c1` [Example 3, [3-(3-carbamoylphenyl)phenyl] N-[3-[4-(2,3-dichlorophenyl)piperazin-1-yl]propyl]carbamate] had an IC50 in assay [1] of 110 pM.

`NC(=O)c1cccc(-c2cccc(OC(=O)NCCCN3CCN(c4ccccc4)CC3)c2)c1` [Example 4, [3-(3-carbamoylphenyl)phenyl] N-[3-(4-phenylpiperazin-1-yl)propyl]carbamate] gave an IC50 in assay [1] of 320 pM. What is called EC50 is the concentration that produces a half-maximal response. Lower therefore signals higher potency in that assay. On to `O=C(NCCCN1CCN(c2ccccc2)CC1)Oc1cccc(-c2ccccc2)c1` [Example 5, (3-phenylphenyl) N-[3-(4-phenylpiperazin-1-yl)propyl]carbamate], for which the IC50 in assay [1] was found to be 3000 pM; in assay [2], 3400 pM. Besides, the Emax in assay [3] (CHO, 0.5 h, % of 300 nM Dopamine response, read-out: Dopamine D3 % of Agonist Activity) came to 89.7%. In assay [3] (cAMP assay, CHO human-D3R, one experiment in duplicate), the response was half-maximal at 13000 pM (EC50). `NC(=O)c1cccc(-c2ccc(OC(=O)NCCCN3CCN(c4cccc(Cl)c4Cl)CC3)cc2)c1` [Example 6, [4-(3-carbamoylphenyl)phenyl] N-[3-[4-(2,3-dichlorophenyl)piperazin-1-yl]propyl]carbamate] registered an IC50 in assay [1] of 1500 pM. `NC(=O)c1cccc(-c2ccc(OC(=O)NCCCCN3CCN(c4cccc(Cl)c4Cl)CC3)cc2)c1` [Example 7, [4-(3-carbamoylphenyl)phenyl] N-[4-[4-(2,3-dichlorophenyl)piperazin-1-yl]butyl]carbamate] had an IC50 in assay [1] of 720 pM.
